# Source: patent US7282507B2, “Indole derivatives as selective androgen receptor modulators (SARMS)” (Janssen Pharmaceutica N.V., priority 2004, dated 2007)
# Values joined by “and” are separate entries in the source; they are usually repeats but may differ in a detail not shown here. Equal entries are not always repeated. Where two headings read alike, the source gives them in different places.
# Columns and labels:
# [1] = biological target: T1, androgen receptor LBD (Panvera) (Rattus norvegicus, UniProt P15207); assay: Androgen Receptor Filtration Binding Assay (PANVERA)
# T1 construct: 5 pmol androgen receptor LBD (Panvera); purchased Panvera
# T1 sequence (P15207 651-882 limits assumed): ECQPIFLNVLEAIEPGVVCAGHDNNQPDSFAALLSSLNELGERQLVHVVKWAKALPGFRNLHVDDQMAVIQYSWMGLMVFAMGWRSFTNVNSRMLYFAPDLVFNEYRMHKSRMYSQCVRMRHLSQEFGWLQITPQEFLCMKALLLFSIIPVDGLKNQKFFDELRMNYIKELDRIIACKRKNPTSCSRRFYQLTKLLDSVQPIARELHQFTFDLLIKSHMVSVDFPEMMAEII
# Experimental: The assay was run on a 96 well plate with each well filled with a total reaction volume 150 μL, of a solution containing 5 pmol androgen receptor LBD (Panvera) or 30 μL of freshly prepared rat cytosol, 0.5 nM [^3H] […] (TED buffer contains 10 mM Tris.HCl pH 7.4, 1 mM sodium molybdate, 1.5 mM EDTA, 1 mM DTT and 10% (v/v) glycerol.)
# On day one, the solution containing receptor, tracer and TED buffer was distributed into a 96 well plate. Diluted test compound or control vehicle was then added to individual wells and the plate incubated at 4° C. overnight.
# On day two, to each well was then added 20 μL human γ-globulin (ICN 823102), prepared at 25 mg/ml in TE pH 8.0, and 55 μL 40% polyethylene glycol 8000 (J T Baker U222-08), prepared in TE pH 8.0. The plate was incubated at 4° C. for 60 minutes. During incubation, the harvester was rinsed with 10% PEG 8000, prepared in TE pH 8.0, and a GF/C Unifilter-96 was pre-wet with 10% PEG. The binding reaction was filtered, the retentate was washed three times with 10% PEG and dried under vacuum for a couple of minutes, then dried at 50° C. for 5 min and the plate was bottom sealed. Next, 25 μL of Microscint-20 (Packard) was added to the filter wells and the plate was top sealed. The plate wells were then counted on a TopCount (Packard).
# Counts per well were measured and IC50s determined by linear regression.
# [2] = biological target: T2, androgen receptor (rat ventral prostate cytosol) (Rattus norvegicus, UniProt P15207); assay: Androgen Receptor Binding Using Rat Ventral Prostate Cytosol; details: for inhibition at 1 µM: read-out: % Inhibition, Androgen Receptor Binding (Rat Cytosol); for % Inhibition, Androgen Receptor Binding (Rat Cytosol): 1 µM; for IC50: read-out: IC50 (nM), Androgen Receptor Binding (Rat Cytosol)
# T2 construct: from tissue; host or cells: ventral prostate cytosol of castrated male Sprague Dawley or Wistar rats
# T2 sequence (P15207 1-902): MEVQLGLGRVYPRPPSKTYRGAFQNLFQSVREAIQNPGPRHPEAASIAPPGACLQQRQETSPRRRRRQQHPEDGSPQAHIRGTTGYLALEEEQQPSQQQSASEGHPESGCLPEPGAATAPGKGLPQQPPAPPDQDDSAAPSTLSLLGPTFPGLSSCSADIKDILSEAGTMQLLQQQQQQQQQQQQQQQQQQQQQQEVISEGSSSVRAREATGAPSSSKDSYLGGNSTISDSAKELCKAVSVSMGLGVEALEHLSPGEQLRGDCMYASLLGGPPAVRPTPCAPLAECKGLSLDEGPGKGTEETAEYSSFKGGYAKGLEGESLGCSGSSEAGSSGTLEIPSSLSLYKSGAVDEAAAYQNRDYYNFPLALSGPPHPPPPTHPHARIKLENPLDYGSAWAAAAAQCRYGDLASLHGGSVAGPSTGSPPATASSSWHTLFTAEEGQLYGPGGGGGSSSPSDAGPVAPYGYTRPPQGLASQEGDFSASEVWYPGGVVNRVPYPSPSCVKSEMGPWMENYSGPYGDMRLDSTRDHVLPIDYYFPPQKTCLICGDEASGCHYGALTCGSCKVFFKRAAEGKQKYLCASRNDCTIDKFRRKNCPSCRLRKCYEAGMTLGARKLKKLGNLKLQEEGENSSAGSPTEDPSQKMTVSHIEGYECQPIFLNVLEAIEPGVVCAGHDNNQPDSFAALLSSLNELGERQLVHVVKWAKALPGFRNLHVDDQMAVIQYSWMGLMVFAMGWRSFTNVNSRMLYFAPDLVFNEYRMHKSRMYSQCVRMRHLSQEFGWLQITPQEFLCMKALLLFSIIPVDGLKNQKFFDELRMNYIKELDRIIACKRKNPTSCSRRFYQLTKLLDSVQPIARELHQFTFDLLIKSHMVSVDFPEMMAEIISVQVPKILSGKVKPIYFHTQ
# Summary of the method: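 Cytosol from castrated rat ventral prostate was incubated overnight at 4°C with 0.5 nM [3H] tracer and compound in TED buffer (10 mM Tris-HCl pH 7.4, molybdate, EDTA, DTT, glycerol).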
# [3] = [3H] R1881 tracer 0.5 nM, read-out: IC50 (nM), Androgen Receptor Binding (Panvera)
# [4] = IC50 (nM), Androgen Receptor Binding (Panvera)
Structure (SMILES),"IC50 [1, 3]",inhibition at 1 µM ([2]; Concentration 1000 nM),further results
COc1ccc(C(=O)OCC(C)(O)c2cc3cc([N+](=O)[O-])c(C(F)(F)F)cc3[nH]2)cc1 (centres unmarked) [Compound 65],945 nM,47.5%,
CN(C)c1ccc(C(=O)OCC(C)(O)c2cc3cc([N+](=O)[O-])c(C(F)(F)F)cc3[nH]2)cc1 (centres unmarked) [Compound 67],3000 nM,25.5%,
CC(O)(COC(=O)c1ccccn1)c1cc2cc([N+](=O)[O-])c(C(F)(F)F)cc2[nH]1 (centres unmarked) [Compound 68],19000 nM,36%,
Cc1ccc(C(=O)OCC(C)(O)c2cc3cc([N+](=O)[O-])c(C(F)(F)F)cc3[nH]2)cc1 (centres unmarked) [Compound 69],1200 nM,31%,
CC(O)(COC(=O)c1ccccc1)c1cc2cc(C#N)c(C(F)(F)F)cc2[nH]1 (centres unmarked) [Compound 75],,,"IC50 [1, 4]: 9100 nM; inhibition at 1 µM [2]: 13.2%"
CC(O)(COC(=O)c1ccc(Cl)cc1)c1cc2cc(C#N)c(C(F)(F)F)cc2[nH]1 (centres unmarked) [Compound 76],1240 nM,-30.5%,
CC(O)(COC(=O)c1ccc(F)cc1)c1cc2cc(C#N)c(C(F)(F)F)cc2[nH]1 (centres unmarked) [Compound 77],1110 nM,-9.25%,
CC(O)(COC(=O)c1ccc(Cl)c(Cl)c1)c1cc2cc(C#N)c(C(F)(F)F)cc2[nH]1 (centres unmarked) [Compound 78],3560 nM,16.6%,
CC(O)(COC(=O)c1cccnc1)c1cc2cc(C#N)c(C(F)(F)F)cc2[nH]1 (centres unmarked) [Compound 79],> 9500 nM,48.5%,
CC(C)(C)c1ccc(C(=O)OCC(C)(O)c2cc3cc([N+](=O)[O-])c(C(F)(F)F)cc3[nH]2)cc1 (centres unmarked) [Compound 80],6400 nM,-24.9%,
COC(=O)c1ccc2c(c1)cc(C(C)(O)CSc1ccccc1)n2S(C)(=O)=O (centres unmarked) [Compound 81],15000 nM,5.2%,
CC(O)(CSc1ccc(Cl)cc1)c1cc2cc(Cl)c(C(F)(F)F)cc2[nH]1 (centres unmarked) [Compound 82],185 nM and 200 nM,69.8%,"% Inhibition, Androgen Receptor Binding (Rat Cytosol) ([2]; Concentration 1000 nM): 83%; IC50 [2]: 640 nM"
CC(O)(CSc1ccc(F)cc1)c1cc2cc(Cl)c(C(F)(F)F)cc2[nH]1 (centres unmarked) [Compound 83],160 nM and 545 nM,69%,IC50 [2]: 120 nM
CC(O)(CSc1ccccc1Cl)c1cc2cc(Cl)c(C(F)(F)F)cc2[nH]1 (centres unmarked) [Compound 84],180 nM,86%,IC50 [2]: 240 nM
CC(O)(CSc1ccc(Cl)c(Cl)c1)c1cc2cc(Cl)c(C(F)(F)F)cc2n1S(C)(=O)=O (centres unmarked) [Compound 86],1250 nM,72.5%,IC50 [2]: 240 nM
CC(O)(CSc1ccc(Cl)c(Cl)c1)c1cc2cc([N+](=O)[O-])c(C(F)(F)F)cc2[nH]1 (centres unmarked) [Compound 87],350 nM and 1650 nM,,"% Inhibition, Androgen Receptor Binding (Rat Cytosol) ([2]; Concentration 1000 nM): 85% and 61.5%; IC50 [2]: 120 nM"
CC(O)(CSc1ccc(Cl)cc1)c1cc2ccccc2n1S(C)(=O)=O (centres unmarked) [Compound 88],5150 nM,-17.4%,
CC(O)(CSc1ccccc1)c1cc2ccccc2n1S(C)(=O)=O (centres unmarked) [Compound 90],> 9000 nM,-2.5%,
CC(O)(CSc1ccc(Cl)c(Cl)c1)c1cc2cc([N+](=O)[O-])c(C(F)(F)F)cc2n1S(C)(=O)=O (centres unmarked) [Compound 91],1280 nM,36%,

Structure (SMILES),"IC50 [1, 3]",inhibition at 1 µM ([2]; Concentration 1000 nM),further results
CC(O)(CSC1CCCCC1)c1cc2cc(C#N)c(C(F)(F)F)cc2[nH]1 (centres unmarked) [Compound 92],37000 nM,14.7%,
COC(=O)c1ccc2c(c1)cc(C(C)(O)CSC1CCCCC1)n2S(C)(=O)=O (centres unmarked) [Compound 93],23000 nM,35%,
COC(=O)c1ccc2[nH]c(C(C)(O)CSC3CCCCC3)cc2c1 (centres unmarked) [Compound 94],15000 nM,21.8%,
CC(O)(CSc1ccccc1)c1cc2cc(C#N)c(C(F)(F)F)cc2[nH]1 (centres unmarked) [Compound 95],3000 nM,56.5%,
CC(O)(CSc1ccc(Cl)cc1)c1cc2cc(C#N)c(C(F)(F)F)cc2[nH]1 (centres unmarked) [Compound 96],,,"IC50 [1, 4]: 820 nM; IC50 ([1]; read-out: IC50 (nM), Androgen Receptor Binding (Panvera)): 1710 nM; % Inhibition, Androgen Receptor Binding (Rat Cytosol) [2]: 59%; inhibition at 1 µM [2]: 74%"
COC(=O)c1ccc2[nH]c(C(C)(O)CSc3ccc(Cl)cc3)cc2c1 (centres unmarked) [Compound 97],7400 nM,25%,
COC(=O)c1ccc2c(c1)cc(C(C)(O)CSc1ccc(F)cc1)n2S(C)(=O)=O (centres unmarked) [Compound 98],8500 nM,-31%,
CC(O)(CSc1ccc(F)cc1)c1cc2cc(Cl)ccc2n1S(C)(=O)=O (centres unmarked) [Compound 99],5750 nM,8.5%,
CC(O)(CSc1ccc(F)cc1)c1cc2cc(Cl)ccc2[nH]1 (centres unmarked) [Compound 100],1160 nM,80%,
CC(O)(CSc1ccc(Cl)cc1)c1cc2cc(Cl)ccc2n1S(C)(=O)=O (centres unmarked) [Compound 101],3850 nM,-24.9%,
CC(O)(CSc1ccc(Cl)cc1)c1cc2cc(Cl)ccc2[nH]1 (centres unmarked) [Compound 102],665 nM,73.5%,IC50 [2]: 140 nM
CC(O)(CSc1ccccc1)c1cc2cc(Cl)c(C(F)(F)F)cc2[nH]1 (centres unmarked) [Compound 106],225 nM,63%,IC50 [2]: 300 nM
CC(O)(CSc1ccc(F)cc1)c1cc2ccccc2n1S(C)(=O)=O (centres unmarked) [Compound 107],9400 nM,1.5%,
CC(O)(CSc1ccc(F)cc1)c1cc2ccccc2[nH]1 (centres unmarked) [Compound 108],7000 nM,17.5%,
CC(O)(CSc1ccc(F)cc1)c1cc2cc(C#N)c(C(F)(F)F)cc2[nH]1 (centres unmarked) [Compound 109],2600 nM,49%,
CC(O)(C[S+]([O-])c1ccccc1)c1cc2cc(Cl)c(C(F)(F)F)cc2[nH]1 (centres unmarked) [Compound 112],4100 nM,39.5%,
CC(O)(C[S+]([O-])c1ccc(F)cc1)c1cc2cc(Cl)c(C(F)(F)F)cc2[nH]1 (centres unmarked) [Compound 114],4900 nM,,"% Inhibition, Androgen Receptor Binding (Rat Cytosol) ([2]; Concentration 1000 nM): 61%"
CC(O)(C[S+]([O-])c1ccc(Cl)c(Cl)c1)c1cc2cc(Cl)c(C(F)(F)F)cc2[nH]1 (centres unmarked) [Compound 116],1750 nM,28.4%,
CC(O)(C[S+]([O-])c1ccc(Cl)c(Cl)c1)c1cc2cc(Cl)c(C(F)(F)F)cc2[nH]1 (centres unmarked) [Compound 117],2000 nM,,"% Inhibition, Androgen Receptor Binding (Rat Cytosol) ([2]; Concentration 1000 nM): 32.5%"
